# Test results taken from patent US12655116B2, “Substituted isophthalic acid diamides” (Bayer Aktiengesellschaft, priority 2020, dated 2026).
# How the values were obtained:
# AMARE [1] = experiment: Pre-emergence herbicidal action against AMARE; type: in vivo, Amaranthus retroflexus
# Outline: (§1)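 Visual rating at 3 weeks vs untreated pots; 0–100% scale, 100% = plants died. Treatment: aqueous WP/EC spray onto covering soil, 600–800 l/ha, 0.2% wetter, seeds in sandy loam.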
# DIGSA [2] = experiment: Pre-emergence herbicidal action against DIGSA; type: in vivo, Digitaria sanguinalis
# Outline: as §1
# SETVI [3] = experiment: Post-emergence herbicidal action against SETVI; type: in vivo, Setaria viridis
# Outline: (§2)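 Greenhouse pot plants in sandy loam were sprayed at the one-leaf stage, 2 to 3 weeks after sowing, with WP or EC formulations as aqueous suspension or emulsion (600 to 800 l/ha water, 0.2% wetting agent). About 3 weeks later, damage was scored visually against untreated controls as % action (100% = dead, 0% = like control).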
# AVEFA [4] = experiment: Post-emergence herbicidal action against AVEFA; type: in vivo, Avena fatua; conditions: 20 g/ha, visual assessment about 3 weeks after treatment, 100% = plants have died, 0% = like control plants
# Outline: as §2
# DIGSA [5] = experiment: Post-emergence herbicidal action against DIGSA; type: in vivo, Digitaria sanguinalis; conditions: for Post-emergence action against DIGSA: 20 g/ha; for Post-emergence action against DIGSA in %: 5 g/ha
# Outline: as §2
# ALOMY [6] = experiment: Pre-emergence herbicidal action against ALOMY; type: in vivo, Alopecurus myosuroides; conditions: 80 g/ha, pre-emergence, scored visually after 3 weeks vs untreated controls (100% = plants have died, 0% = like control plants)
# Outline: as §1
# STEME [7] = experiment: Pre-emergence herbicidal action against STEME; type: in vivo, Stellaria media
# Outline: as §1
# MATIN [8] = experiment: Pre-emergence herbicidal action against MATIN; type: in vivo, Matricaria inodora
# Outline: as §1
# ABUTH [9] = experiment: Pre-emergence herbicidal action against ABUTH; type: in vivo, Abutilon theophrasti; conditions: for Pre-emergence action against ABUTH (herbicidal activity): 80 g/ha, scored visually after 3 weeks vs untreated controls (100% = plants have died, 0% = like control plants); for Pre-emergence action against ABUTH (herbicidal activity in percent): dosage 20 g/ha, scored visually after 3 weeks vs untreated controls, 100% = plants have died, 0% = like control plants
# Outline: as §1
# PHBPU [10] = experiment: Pre-emergence herbicidal action against PHBPU; type: in vivo, Pharbitis purpurea; conditions: dosage 80 g/ha
# Outline: as §1
# PHBPU [11] = experiment: Post-emergence herbicidal action against PHBPU; type: in vivo, Pharbitis purpurea
# Outline: as §2
# VERPE = experiment: Pre-emergence herbicidal action against VERPE; type: in vivo, Veronica persica; conditions: dosage 80 g/ha
# Outline: as §1
# VIOTR [12] = experiment: Post-emergence herbicidal action against VIOTR; type: in vivo, Viola tricolor
# Outline: as §2
# MATIN [13] = experiment: Post-emergence herbicidal action against MATIN; type: in vivo, Matricaria inodora
# Outline: as §2
# VIOTR [14] = experiment: Pre-emergence herbicidal action against VIOTR; type: in vivo, Viola tricolor
# Outline: as §1
# AVEFA [15] = experiment: Pre-emergence herbicidal action against AVEFA; type: in vivo, Avena fatua; conditions: 80 g/ha, pre-emergence
# Outline: as §1
# ABUTH [16] = experiment: Post-emergence herbicidal action against ABUTH; type: in vivo, Abutilon theophrasti; conditions: visual assessment about 3 weeks after treatment vs untreated controls
# Outline: as §2
# STEME [17] = experiment: Post-emergence herbicidal action against STEME; type: in vivo, Stellaria media
# Procedure: Seeds of monocotyledonous and dicotyledonous weed and crop plants are laid out in sandy loam soil in wood-fiber pots, covered with soil and cultivated in a greenhouse under good growth conditions. 2 to 3 weeks after sowing, the test plants are treated at the one-leaf stage. The compounds of the invention, formulated in the form of wettable powders (WP) or as emulsion concentrates (EC), are then sprayed onto the green parts of the plants in the form of an aqueous suspension or emulsion at a water application rate equivalent to 600 to 800 l/ha, with addition of 0.2% wetting agent. After the test plants have been left to stand in the greenhouse under optimal growth conditions for about 3 weeks, the action of the preparations is assessed visually in comparison to untreated controls (herbicidal action in percent (%): 100% activity=the plants have died, 0% activity=like control plants). […] The tables below illustrate, in an illustrative manner, the post-emergence herbicidal action of the compounds of the invention, the herbicidal activity being stated in percent.
# SETVI [18] = experiment: Pre-emergence herbicidal action against SETVI; type: in vivo, Setaria viridis; conditions: dosage 80 g/ha
# Outline: as §1
# ALOMY [19] = experiment: Post-emergence herbicidal action against ALOMY; type: in vivo, Alopecurus myosuroides; conditions: dosage 20 g/ha, visual assessment about 3 weeks after treatment vs untreated controls
# Outline: as §2
# ECHCG [20] = experiment: Post-emergence herbicidal action against ECHCG; type: in vivo, Echinochloa crus-galli
# Outline: as §2
# AMARE [21] = experiment: Post-emergence herbicidal action against AMARE; type: in vivo, Amaranthus retroflexus; conditions: 20 g/ha, visual assessment about 3 weeks after treatment, 100% = plants have died, 0% = like control plants
# Outline: as §2
# ECHCG [22] = experiment: Pre-emergence herbicidal action against ECHCG; type: in vivo, Echinochloa crus-galli; conditions: 80 g/ha
# Outline: as §1
# POLCO = experiment: Pre-emergence herbicidal action against POLCO; type: in vivo, Polygonum convolvulus; conditions: dosage 80 g/ha
# Outline: as §1
# [23] = 20 g/ha, scored visually after 3 weeks vs untreated controls, 100% = plants have died, 0% = like control plants
# [24] = 80 g/ha, scored visually after 3 weeks vs untreated controls (100% = plants have died, 0% = like control plants)
SMILES,Pre-emergence action against AMARE in % (AMARE [1]; [23]) [%],Pre-emergence action against AMARE in % (AMARE [1]; [24]) [%],Pre-emergence action against DIGSA in % (DIGSA [2]; dosage 80 g/ha) [%],Post-emergence action against SETVI in % (SETVI [3]; dosage 20 g/ha) [%],Post-emergence action against DIGSA (DIGSA [5]) [%],Pre-emergence action against STEME in % (STEME [7]; dosage 20 g/ha) [%],Pre-emergence action against STEME in % (STEME [7]; dosage 80 g/ha) [%],Pre-emergence action against MATIN in % (MATIN [8]; dosage 20 g/ha) [%],Pre-emergence action against MATIN in % (MATIN [8]; dosage 80 g/ha) [%],Pre-emergence action against ABUTH (herbicidal activity) (ABUTH [9]) [%],Pre-emergence action against ABUTH (herbicidal activity in percent) (ABUTH [9]) [%],Post-emergence action against VIOTR in % (VIOTR [12]; 20 g/ha) [%],Post-emergence action against MATIN in % (MATIN [13]; dosage 20 g/ha) [%],Pre-emergence action against VIOTR in % (VIOTR [14]; dosage 20 g/ha) [%],Pre-emergence action against VIOTR in % (VIOTR [14]; dosage 80 g/ha) [%],Post-emergence action against ABUTH in % (ABUTH [16]; dosage 20 g/ha) [%],Post-emergence action against STEME in % (STEME [17]; 20 g/ha) [%],Pre-emergence action against DIGSA in % (DIGSA [2]; dosage 20 g/ha) [%],Post-emergence action against DIGSA in % (DIGSA [5]) [%],Post-emergence action at 20 g/ha against AMARE in % (AMARE [21]) [%],also measured
CCCn1nnnc1NC(=O)c1ccc(C(F)(F)F)c(C(=O)NC2CC2)c1C [Example 3-27],100,100,100,90,100,100,100,100,100,100,100,100,100,90,100,100,80,,,,Post-emergence action at 20 g/ha against AVEFA in % (AVEFA [4]): 90%; Pre-emergence action against ALOMY (herbicidal activity) (ALOMY [6]): 90%; Pre-emergence action against PHBPU in % (PHBPU [10]): 90%; Post-emergence action against PHBPU in % (PHBPU [11]; dosage 5 g/ha): 90%; Post-emergence action against PHBPU in % (PHBPU [11]; dosage 20 g/ha): 100%; Pre-emergence action against VERPE in % (VERPE): 90%; Post-emergence action against VIOTR in % (VIOTR [12]; 5 g/ha): 80%; Post-emergence action against MATIN in % (MATIN [13]; dosage 5 g/ha): 90%; Pre-emergence action against AVEFA in % (AVEFA [15]): 90%
CCNC(=O)c1c(C(F)F)ccc(C(=O)Nc2nnco2)c1SC [Example 5-75],100,100,100,80,90,100,100,80,100,100,100,80,80,100,100,90,100,100,90,90,Pre-emergence action against SETVI in % (SETVI [18]): 100%; Post-emergence action against SETVI in % (SETVI [3]; dosage 5 g/ha): 80%; Post-emergence action at 20 g/ha against AVEFA in % (AVEFA [4]): 80%; Post-emergence action against ALOMY in % (ALOMY [19]): 80%; Post-emergence action against ECHCG in % (ECHCG [20]; dosage 5 g/ha): 80%; Post-emergence action against ECHCG in % (ECHCG [20]; dosage 20 g/ha): 80%; Post-emergence action against PHBPU in % (PHBPU [11]; dosage 5 g/ha): 80%; Post-emergence action against PHBPU in % (PHBPU [11]; dosage 20 g/ha): 80%; Pre-emergence action against VERPE in % (VERPE): 90%; Post-emergence action against ABUTH in % (ABUTH [16]; dosage 5 g/ha): 90%; Post-emergence action against STEME in % (STEME [17]; dosage 5 g/ha): 90%; Pre-emergence action against ECHCG in % (ECHCG [22]): 100%
CCNC(=O)c1c(C(F)F)ccc(C(=O)Nc2nnc(C)o2)c1C [Example 6-32],80,100,100,80,80,,90,,90,80,,,,,,80,80,90,80,100,Pre-emergence action against POLCO in % (POLCO): 80%; Post-emergence action against ABUTH in % (ABUTH [16]; dosage 5 g/ha): 80%; Pre-emergence action against ECHCG in % (ECHCG [22]): 90%
Cc1nnc(NC(=O)c2ccc(C(F)(F)F)c(C(=O)NC3CC3)c2Cl)o1 [Example 6-118],80,100,100,,100,90,100,90,100,100,100,80,80,90,90,90,100,90,100,100,Pre-emergence action against SETVI in % (SETVI [18]): 100%; Pre-emergence action against ALOMY (herbicidal activity) (ALOMY [6]): 100%; Post-emergence action against ALOMY in % (ALOMY [19]): 80%; Post-emergence action against ECHCG in % (ECHCG [20]; dosage 20 g/ha): 90%; Pre-emergence action against POLCO in % (POLCO): 80%; Pre-emergence action against AVEFA in % (AVEFA [15]): 90%; Post-emergence action against ABUTH in % (ABUTH [16]; dosage 5 g/ha): 80%; Pre-emergence action against ECHCG in % (ECHCG [22]): 100%
